Results: patent US6777413B2, “2-[1H]-quinolone and 2-[1H]-quinoxalone inhibitors of factor Xa” (Millennium Pharmaceuticals, Inc., priority 2000, dated 2004)

Experiments:
factor Xa = factor Xa (Homo sapiens, UniProt P00742); assay: factor Xa amidolytic assay (XA)
Protocol: (§1) In the assays for thrombin, prothrombinase and factor Xa, a synthetic chromogenic substrate is added to a solution containing test compound and the enzyme of interest and the residual catalytic activity of that enzyme is determined spectrophotometrically. The IC50 of a compound is determined from the substrate turnover. […] The factor Xa and thrombin assays are performed at room temperature, in 0.02 M Tris·HCl buffer, pH 7.5, containing 0.15 M NaCl.

thrombin = thrombin (Homo sapiens, UniProt P00734); assay: thrombin amidolytic assay (IIA)
Protocol: as §1

TRYPSIN = biological target: T1, TRYPSIN (Bos taurus, UniProt P00760); assay: trypsin protease inhibition; format: biochemical
T1 construct: gene PRSS1
T1 sequence (P00760 24-246): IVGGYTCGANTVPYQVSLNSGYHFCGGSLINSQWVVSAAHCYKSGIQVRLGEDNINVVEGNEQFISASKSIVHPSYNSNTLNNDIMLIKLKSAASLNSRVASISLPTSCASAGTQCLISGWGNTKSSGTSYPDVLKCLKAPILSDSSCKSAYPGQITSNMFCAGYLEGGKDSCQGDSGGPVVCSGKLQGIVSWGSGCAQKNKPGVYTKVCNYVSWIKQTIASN

prothrombinase complex = prothrombinase complex (Homo sapiens, UniProt P00742); assay: prothrombinase inhibition assay (IIASE); format: biochemical; settings: plasma free system, Chromozym TH
prothrombinase complex, sequence (P00742 235-488 limits assumed): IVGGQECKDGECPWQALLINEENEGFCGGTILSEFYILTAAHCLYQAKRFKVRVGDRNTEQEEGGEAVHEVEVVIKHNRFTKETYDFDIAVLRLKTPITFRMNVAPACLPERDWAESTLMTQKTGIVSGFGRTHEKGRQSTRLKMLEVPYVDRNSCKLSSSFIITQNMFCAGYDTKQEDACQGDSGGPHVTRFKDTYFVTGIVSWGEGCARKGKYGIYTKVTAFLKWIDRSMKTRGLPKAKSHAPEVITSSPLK
prothrombinase complex, sequence (P00742 41-179 limits assumed): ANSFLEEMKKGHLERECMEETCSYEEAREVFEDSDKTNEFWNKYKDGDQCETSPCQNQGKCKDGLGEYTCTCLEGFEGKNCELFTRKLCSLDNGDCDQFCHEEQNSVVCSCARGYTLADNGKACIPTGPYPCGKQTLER
prothrombinase complex, sequence (P12259 29-737 partner limits assumed): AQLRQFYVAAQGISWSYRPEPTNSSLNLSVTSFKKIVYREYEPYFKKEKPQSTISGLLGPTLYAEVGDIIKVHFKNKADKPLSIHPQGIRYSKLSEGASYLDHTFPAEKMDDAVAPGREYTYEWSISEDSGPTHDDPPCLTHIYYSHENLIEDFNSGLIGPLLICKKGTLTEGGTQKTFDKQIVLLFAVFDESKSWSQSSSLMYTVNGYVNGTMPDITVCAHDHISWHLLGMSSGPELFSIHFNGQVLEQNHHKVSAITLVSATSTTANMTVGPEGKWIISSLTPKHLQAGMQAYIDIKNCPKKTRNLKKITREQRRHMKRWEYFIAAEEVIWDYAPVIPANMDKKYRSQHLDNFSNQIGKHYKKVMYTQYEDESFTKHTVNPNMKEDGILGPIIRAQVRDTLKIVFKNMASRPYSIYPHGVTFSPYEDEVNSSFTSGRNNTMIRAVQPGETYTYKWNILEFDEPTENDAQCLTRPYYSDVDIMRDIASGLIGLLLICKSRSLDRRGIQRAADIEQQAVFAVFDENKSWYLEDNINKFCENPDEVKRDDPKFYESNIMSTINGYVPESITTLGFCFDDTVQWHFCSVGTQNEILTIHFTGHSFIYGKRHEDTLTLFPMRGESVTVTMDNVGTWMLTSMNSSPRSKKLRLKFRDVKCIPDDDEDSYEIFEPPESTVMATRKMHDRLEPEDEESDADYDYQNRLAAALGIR
prothrombinase complex, sequence (P12259 1574-2224 partner limits assumed): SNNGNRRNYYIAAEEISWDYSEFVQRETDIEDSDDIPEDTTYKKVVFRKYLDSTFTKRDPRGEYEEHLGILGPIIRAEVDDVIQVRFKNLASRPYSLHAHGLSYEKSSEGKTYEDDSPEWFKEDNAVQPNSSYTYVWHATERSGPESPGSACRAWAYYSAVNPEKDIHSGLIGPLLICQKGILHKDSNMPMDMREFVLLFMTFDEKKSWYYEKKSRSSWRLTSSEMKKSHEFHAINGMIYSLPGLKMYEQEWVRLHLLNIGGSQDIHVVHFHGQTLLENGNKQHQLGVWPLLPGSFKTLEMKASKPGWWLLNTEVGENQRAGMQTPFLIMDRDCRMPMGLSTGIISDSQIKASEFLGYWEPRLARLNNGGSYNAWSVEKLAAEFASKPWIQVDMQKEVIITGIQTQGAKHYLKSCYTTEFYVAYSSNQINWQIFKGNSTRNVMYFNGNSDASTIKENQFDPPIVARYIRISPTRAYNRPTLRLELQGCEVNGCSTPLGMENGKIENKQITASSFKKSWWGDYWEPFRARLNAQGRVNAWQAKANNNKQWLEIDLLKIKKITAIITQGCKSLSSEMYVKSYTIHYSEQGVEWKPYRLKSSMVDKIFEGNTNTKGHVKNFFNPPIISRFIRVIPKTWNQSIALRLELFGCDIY
Protocol: The prothrombinase inhibition assay is performed in a plasma free system with modifications to the method described by Sinha, U. et al., Thromb. […] Specifically, the activity of the prothrombinase complex is determined by measuring the time course of thrombin generation using the p-nitroanilide substrate Chromozym TH. […] Aliquots from the complex-inhibitor mixture are added to prothrombin (1 nM) and Chromozym TH (0.1 mM). […] Eight different concentrations of inhibitor are assayed in duplicate. A standard curve of thrombin generation by an equivalent amount of untreated complex is used for determination of percent inhibition.

factor Xa, sequence (P00742 235-488 limits assumed): as the sequence (P00742 235-488 limits assumed) above
factor Xa, sequence (P00742 41-179 limits assumed): as the sequence (P00742 41-179 limits assumed) above

IC50 (factor Xa)	IC50 (thrombin)	IC50 (TRYPSIN)	IC50 (prothrombinase complex)	SMILES
137000 nM	995 nM	52500 nM	1200 nM	CC(=N)N1CCC(Oc2ccc3c(ccc(=O)n3Cc3ccccc3-c3ccc(C(=N)N)cc3)c2)CC1 [Example 10]
4.74 nM	69.3 nM	10.4 nM	14.3 nM	CCn1c(Cn2c(=O)ccc3cc(OC4CCN(C(C)=N)CC4)ccc32)cc2ccc(C(=N)N)cc21 [Example 14]
514 nM	11000 nM	832 nM	1210 nM	CCn1c(Cn2c(=O)ccc3cc(OC4CCN(C(C)=N)CC4)ccc32)cc2ccc(C(=N)NN)cc21 [Example 17]
50000 nM	3000 nM	1910 nM	8630 nM	CC(=N)N1CCC(Oc2ccc3c(ccc(=O)n3Cc3ccc(-c4ccc(C(=N)N)cc4)cc3)c2)CC1 [Example 13]
82.3 nM	45000 nM	4290 nM	362 nM	CC(=N)N1CCC(Oc2ccc3c(ccc(=O)n3Cc3ccc(-c4cccc(C(=N)N)c4)cc3)c2)CC1 [Example 7]
70000 nM	9130 nM	4410 nM	15500 nM	N=C(N)c1ccc(-c2ccc(Cn3c(=O)ccc4cc(OC5CCNCC5)ccc43)cc2)cc1 [Example 12]
1570 nM	6590 nM	263 nM	46300 nM	N=C(N)c1cccc(-c2cccc(Cn3c(=O)ccc4cc(OC5CCNCC5)ccc43)c2)c1 [Example 5]
209 nM	399000 nM	315 nM	2580 nM	CN1CCC(Oc2ccc3c(ccc(=O)n3Cc3ccc4ccc(C(=N)N)cc4c3)c2)CC1 [Example 16]
41900 nM	2480 nM	289 nM	2180 nM	N=C(N)c1cccc(-c2ccccc2Cn2c(=O)ccc3cc(OC4CCNCC4)ccc32)c1 [Example 11]
4940 nM	58800 nM	3630 nM	38200 nM	N=C(N)c1cccc(-c2ccc(Cn3c(=O)ccc4cc(OC5CCNCC5)ccc43)cc2)c1 [Example 6]
580 nM	75000 nM	656 nM	3250 nM	N=C(N)c1ccc2ccc(Cn3c(=O)ccc4cc(OC5CCN(c6ncccn6)CC5)ccc43)cc2c1 [Example 18]
2550 nM		847 nM	697 nM	CC(=N)N1CCC(Oc2ccc3c(ccc(=O)n3Cc3ccccc3-c3cccc(C(=N)N)c3)c2)CC1 [Example 9]
11.8 nM	4560 nM	47.7 nM	157 nM	CC(=N)N1CCC(Oc2ccc3c(ccc(=O)n3Cc3cccc(-c4cccc(C(=N)N)c4)c3)c2)CC1 [Example 4]
501000 nM	1700 nM	56600 nM	1920 nM	N=C(N)c1ccc(-c2ccccc2Cn2c(=O)ccc3cc(OC4CCNCC4)ccc32)cc1 [Example 8]
18800 nM	30400 nM	3370 nM	33500 nM	CC(=N)N1CCC(Oc2ccc3c(ccc(=O)n3Cc3cccc(-c4ccc(C(=N)N)cc4)c3)c2)CC1 [Example 15]
151 nM	122000 nM	77.2 nM	9110 nM	N=C(N)c1ccc2ccc(Cn3c(=O)ccc4cc(OC5CCNCC5)ccc43)cc2c1 [Example 1]
